Measurements from patent publication US20100267561A1, “HERBICIDAL PYRIDAZINONE DERIVATIVES” (priority 2007, published 2010).

Key:
Experiment in all cases: Test E pre-/postemergence plant response
Assay type in all cases: in vivo
Conditions in all cases: scale 0 to 100
[1] = tested on: goosegrass (Eleusine indica)
How it was run: (§1)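 Pre/post herbicide screen; formulation: non-phytotoxic solvent mix + surfactant. Post timing 1–4 leaves (2–18 cm ht). Greenhouse 14–21 d; visual 0 (none) to 100 (complete control) vs controls.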

[2] = tested on: quackgrass (Elytrigia repens)
How it was run: as §1

[3] = tested on: bermudagrass (Cynodon dactylon)
How it was run: as §1

[4] = tested on: surinam grass (Brachiaria decumbens)
How it was run: as §1

[5] = tested on: common purslane (Portulaca oleracea)
How it was run: as §1

[6] = tested on: purple nutsedge (Cyperus rotundus)
How it was run: as §1

[7] = tested on: guineagrass (Panicum maximum)
How it was run: as §1

[8] = tested on: green foxtail (Setaria viridis)
How it was run: as §1

[9] = tested on: broadleaf signalgrass (Brachiaria platyphylla)
How it was run: as §1

[10] = tested on: black mustard (Brassica nigra)
How it was run: as §1

[11] = tested on: large crabgrass (Digitaria sanguinalis)
How it was run: as §1

[12] = tested on: dallisgrass (Paspalum dilatatum)
How it was run: as §1

[13] = tested on: itchgrass (Rottboellia cochinchinensis)
How it was run: as §1

[14] = tested on: common mallow (Malva sylvestris)
How it was run: as §1

For CCc1cc(-c2ccc(C(F)(F)F)cc2)nn1-c1c(OS(C)(=O)=O)cnn(C)c1=O [Compound 19], which “Plant response rating, Goosegrass” value ([1]; 4 g ai/ha, Postemergence) is on record?
Its value is 0.

And the “Plant response rating, Goosegrass” value ([1]; 8 g ai/ha, Preemergence)?
Its value is 40.

And the “Plant response rating, Goosegrass” value ([1]; 16 g ai/ha, Preemergence)?
The value was 70.

What about the “Plant response rating, Goosegrass” value ([1]; 31 g ai/ha, Preemergence) of the same compound?
The value was 90.

What about the “Plant response rating, Goosegrass” value ([1]; Postemergence, 8 g ai/ha) of the same compound?
Its value is 25.

What about the “Plant response rating, Goosegrass” value ([1]; Postemergence, 16 g ai/ha) of the same compound?
The value was 60.

And the “Plant response rating, Goosegrass” value ([1]; Postemergence, 31 g ai/ha)?
The value was 75.

And the “Plant response rating, Goosegrass” value ([1]; Preemergence, 4 g ai/ha)?
The value was 15.

What about the “Plant response rating, Quackgrass” value ([2]; 4 g ai/ha, Postemergence) of the same compound?
The value was 0.

What about the “Plant response rating, Quackgrass” value ([2]; 16 g ai/ha, Preemergence) of the same compound?
The value was 65.

And the “Plant response rating, Quackgrass” value ([2]; 31 g ai/ha, Preemergence)?
The value was 80.

And the “Plant response rating, Quackgrass” value ([2]; Postemergence, 8 g ai/ha)?
Its value is 15.

And the “Plant response rating, Quackgrass” value ([2]; Postemergence, 16 g ai/ha)?
Its value is 75.

What about the “Plant response rating, Quackgrass” value ([2]; Postemergence, 31 g ai/ha) of the same compound?
The value was 80.

What about the “Plant response rating, Quackgrass” value ([2]; Preemergence, 4 g ai/ha) of the same compound?
The value was 0.

What about the “Plant response rating, Bermudagrass” value ([3]; 4 g ai/ha, Postemergence) of the same compound?
Its value is 15.

And the “Plant response rating, Bermudagrass” value ([3]; 8 g ai/ha, Preemergence)?
Its value is 60.

What about the “Plant response rating, Bermudagrass” value ([3]; 16 g ai/ha, Preemergence) of the same compound?
The value was 95.

What about the “Plant response rating, Bermudagrass” value ([3]; 31 g ai/ha, Preemergence) of the same compound?
Its value is 100.

And the “Plant response rating, Bermudagrass” value ([3]; Postemergence, 8 g ai/ha)?
The value was 35.

What about the “Plant response rating, Bermudagrass” value ([3]; Postemergence, 16 g ai/ha) of the same compound?
Its value is 35.

And the “Plant response rating, Bermudagrass” value ([3]; Postemergence, 31 g ai/ha)?
The value was 80.

And the “Plant response rating, Bermudagrass” value ([3]; Preemergence, 4 g ai/ha)?
The value was 25.

What about the “Plant response rating, Surinam Grass” value ([4]; 4 g ai/ha, Postemergence) of the same compound?
Its value is 35.

What about the “Plant response rating, Surinam Grass” value ([4]; 16 g ai/ha, Preemergence) of the same compound?
Its value is 100.

And the “Plant response rating, Surinam Grass” value ([4]; 31 g ai/ha, Preemergence)?
The value was 100.

And the “Plant response rating, Surinam Grass” value ([4]; Postemergence, 8 g ai/ha)?
The value was 70.

What about the “Plant response rating, Surinam Grass” value ([4]; Postemergence, 16 g ai/ha) of the same compound?
The value was 95.

And the “Plant response rating, Surinam Grass” value ([4]; Postemergence, 31 g ai/ha)?
Its value is 100.

And the “Plant response rating, Surinam Grass” value ([4]; Preemergence, 4 g ai/ha)?
The value was 50.

And the “Plant response rating, Purslane” value ([5]; 4 g ai/ha, Postemergence)?
The value was 0.

What about the “Plant response rating, Purslane” value ([5]; 16 g ai/ha, Preemergence) of the same compound?
Its value is 0.

And the “Plant response rating, Purslane” value ([5]; 31 g ai/ha, Preemergence)?
Its value is 0.

What about the “Plant response rating, Purslane” value ([5]; Postemergence, 8 g ai/ha) of the same compound?
Its value is 0.

What about the “Plant response rating, Purslane” value ([5]; Postemergence, 16 g ai/ha) of the same compound?
The value was 0.

And the “Plant response rating, Purslane” value ([5]; Postemergence, 31 g ai/ha)?
Its value is 0.

And the “Plant response rating, Purslane” value ([5]; Preemergence, 4 g ai/ha)?
The value was 0.

And the “Plant response rating, Nutsedge, Purple” value ([6]; 4 g ai/ha, Postemergence)?
Its value is 0.

What about the “Plant response rating, Nutsedge, Purple” value ([6]; Postemergence, 16 g ai/ha) of the same compound?
The value was 0.

What about the “Plant response rating, Nutsedge, Purple” value ([6]; Preemergence, 4 g ai/ha) of the same compound?
Its value is 0.

What about the “Plant response rating, Guineagrass” value ([7]; 4 g ai/ha, Postemergence) of the same compound?
The value was 80.

And the “Plant response rating, Guineagrass” value ([7]; 16 g ai/ha, Preemergence)?
Its value is 100.

What about the “Plant response rating, Guineagrass” value ([7]; 31 g ai/ha, Preemergence) of the same compound?
The value was 100.

And the “Plant response rating, Guineagrass” value ([7]; Postemergence, 8 g ai/ha)?
Its value is 90.

And the “Plant response rating, Guineagrass” value ([7]; Postemergence, 16 g ai/ha)?
Its value is 95.

What about the “Plant response rating, Guineagrass” value ([7]; Postemergence, 31 g ai/ha) of the same compound?
The value was 98.

What about the “Plant response rating, Guineagrass” value ([7]; Preemergence, 4 g ai/ha) of the same compound?
The value was 60.

And the “Plant response rating, Foxtail, Green” value ([8]; 4 g ai/ha, Postemergence)?
Its value is 20.

What about the “Plant response rating, Foxtail, Green” value ([8]; 8 g ai/ha, Preemergence) of the same compound?
Its value is 40.

What about the “Plant response rating, Foxtail, Green” value ([8]; 16 g ai/ha, Preemergence) of the same compound?
Its value is 65.

What about the “Plant response rating, Foxtail, Green” value ([8]; 31 g ai/ha, Preemergence) of the same compound?
The value was 100.

And the “Plant response rating, Foxtail, Green” value ([8]; Postemergence, 8 g ai/ha)?
Its value is 90.

And the “Plant response rating, Foxtail, Green” value ([8]; Postemergence, 16 g ai/ha)?
Its value is 95.

And the “Plant response rating, Foxtail, Green” value ([8]; Postemergence, 31 g ai/ha)?
Its value is 100.

And the “Plant response rating, Foxtail, Green” value ([8]; Preemergence, 4 g ai/ha)?
The value was 0.

What about the “Plant response rating, Signalgrass” value ([9]; 4 g ai/ha, Postemergence) of the same compound?
Its value is 65.

And the “Plant response rating, Signalgrass” value ([9]; 16 g ai/ha, Preemergence)?
The value was 80.

And the “Plant response rating, Signalgrass” value ([9]; 31 g ai/ha, Preemergence)?
Its value is 80.

What about the “Plant response rating, Signalgrass” value ([9]; Postemergence, 8 g ai/ha) of the same compound?
Its value is 80.

And the “Plant response rating, Signalgrass” value ([9]; Postemergence, 16 g ai/ha)?
The value was 98.

And the “Plant response rating, Signalgrass” value ([9]; Postemergence, 31 g ai/ha)?
The value was 98.

And the “Plant response rating, Signalgrass” value ([9]; Preemergence, 4 g ai/ha)?
Its value is 40.

What about the “Plant response rating, Mustard, Black” value ([10]; 4 g ai/ha, Postemergence) of the same compound?
Its value is 0.

And the “Plant response rating, Mustard, Black” value ([10]; 8 g ai/ha, Preemergence)?
Its value is 0.

What about the “Plant response rating, Mustard, Black” value ([10]; 16 g ai/ha, Preemergence) of the same compound?
Its value is 0.

And the “Plant response rating, Mustard, Black” value ([10]; 31 g ai/ha, Preemergence)?
The value was 0.

And the “Plant response rating, Mustard, Black” value ([10]; Postemergence, 8 g ai/ha)?
The value was 0.

What about the “Plant response rating, Mustard, Black” value ([10]; Postemergence, 16 g ai/ha) of the same compound?
Its value is 0.

And the “Plant response rating, Mustard, Black” value ([10]; Postemergence, 31 g ai/ha)?
The value was 0.

What about the “Plant response rating, Mustard, Black” value ([10]; Preemergence, 4 g ai/ha) of the same compound?
The value was 0.

And the “Plant response rating, Crabgrass, Large” value ([11]; 4 g ai/ha, Postemergence)?
Its value is 30.

What about the “Plant response rating, Crabgrass, Large” value ([11]; 8 g ai/ha, Preemergence) of the same compound?
The value was 15.

What about the “Plant response rating, Crabgrass, Large” value ([11]; 16 g ai/ha, Preemergence) of the same compound?
The value was 95.

And the “Plant response rating, Crabgrass, Large” value ([11]; 31 g ai/ha, Preemergence)?
The value was 100.

And the “Plant response rating, Crabgrass, Large” value ([11]; Postemergence, 8 g ai/ha)?
The value was 40.

And the “Plant response rating, Crabgrass, Large” value ([11]; Postemergence, 16 g ai/ha)?
The value was 60.

What about the “Plant response rating, Crabgrass, Large” value ([11]; Postemergence, 31 g ai/ha) of the same compound?
Its value is 80.

And the “Plant response rating, Crabgrass, Large” value ([11]; Preemergence, 4 g ai/ha)?
The value was 0.

And the “Plant response rating, Dallisgrass” value ([12]; 4 g ai/ha, Postemergence)?
Its value is 0.

And the “Plant response rating, Dallisgrass” value ([12]; 8 g ai/ha, Preemergence)?
Its value is 40.

What about the “Plant response rating, Dallisgrass” value ([12]; 16 g ai/ha, Preemergence) of the same compound?
The value was 90.

And the “Plant response rating, Dallisgrass” value ([12]; 31 g ai/ha, Preemergence)?
The value was 95.

And the “Plant response rating, Dallisgrass” value ([12]; Postemergence, 8 g ai/ha)?
Its value is 30.

What about the “Plant response rating, Dallisgrass” value ([12]; Postemergence, 16 g ai/ha) of the same compound?
Its value is 60.

And the “Plant response rating, Dallisgrass” value ([12]; Postemergence, 31 g ai/ha)?
Its value is 75.

What about the “Plant response rating, Dallisgrass” value ([12]; Preemergence, 4 g ai/ha) of the same compound?
Its value is 20.

And the “Plant response rating, Itchgrass” value ([13]; 4 g ai/ha, Postemergence)?
The value was 0.

What about the “Plant response rating, Itchgrass” value ([13]; 16 g ai/ha, Preemergence) of the same compound?
Its value is 65.

And the “Plant response rating, Itchgrass” value ([13]; 31 g ai/ha, Preemergence)?
The value was 80.

What about the “Plant response rating, Itchgrass” value ([13]; Postemergence, 8 g ai/ha) of the same compound?
The value was 20.

And the “Plant response rating, Itchgrass” value ([13]; Postemergence, 16 g ai/ha)?
The value was 70.

What about the “Plant response rating, Itchgrass” value ([13]; Postemergence, 31 g ai/ha) of the same compound?
Its value is 80.

And the “Plant response rating, Itchgrass” value ([13]; Preemergence, 4 g ai/ha)?
Its value is 10.

What about the “Plant response rating, Mallow” value ([14]; 4 g ai/ha, Postemergence) of the same compound?
The value was 0.

And the “Plant response rating, Mallow” value ([14]; 16 g ai/ha, Preemergence)?
Its value is 0.

What about the “Plant response rating, Mallow” value ([14]; 31 g ai/ha, Preemergence) of the same compound?
Its value is 0.

And the “Plant response rating, Mallow” value ([14]; Postemergence, 8 g ai/ha)?
Its value is 0.

And the “Plant response rating, Mallow” value ([14]; Postemergence, 16 g ai/ha)?
Its value is 0.

And the “Plant response rating, Mallow” value ([14]; Postemergence, 31 g ai/ha)?
Its value is 0.
